Measurements as given in the OligoGym collection.
Several values for one entry are separate records, joined by “and”; a condition that tells them apart may be missing. Equal values may be shown once. After the bases stand the sugars from the 5' end (letter, count) and the backbone: PS all phosphorothioate, else s phosphorothioate and o phosphodiester by linkage. Methylation of C is not given here. e = 2'-O-(2-methoxyethyl) (MOE); k = constrained ethyl (cEt); d = 2'-deoxy (DNA)

Biological target: IRF4
Conditions: ASO

Q: With TACTCACGAGCACCTC (sugars k3 d10 k3, PS) as the sequence, how does the target mRNA inhibition (SK-MEL-28, 4 µM) read?
A: 41%

Q: “TACTGCTTGAGGTTTT (sugars e1 k2 d9 k2 e2, PS)” was tested. Which target mRNA inhibition (MM.1R, 1 µM) did it give?
A: 6%

Q: How did the target mRNA inhibition (SK-MEL-28, 4 µM) turn out when TACTGCTTGAGGTTTT (sugars k3 d10 k3, PS) was run?
A: 50%

Q: For “TACTGCTTGAGGTTTT (sugars kkddddddddddkeke, PS)”, which target mRNA inhibition (MM.1R, 1 µM) is on record?
A: 11%

Q: For “TACTGTTACCGATGCT (sugars kkdddddddddekeke, PS)”, which target mRNA inhibition (MM.1R, 1 µM) is on record?
A: 22% and 14%

Q: How did the target mRNA inhibition (SK-MEL-28, 4 µM) turn out when TACTTAGACATTACTA (sugars k3 d10 k3, PS) was run?
A: 39%

Q: With TAGAGGAATGGCGGAT (sugars k3 d10 k3, PS) as the sequence, how does the target mRNA inhibition (SK-MEL-28, 4 µM) read?
A: 45%

Q: TAGATCTGTGGTAATC (sugars k3 d10 k3, PS) was tested. Which target mRNA inhibition (MM.1R, 1 µM) did it give?
A: 20% and 6%

Q: With TAGATTGTAGGACAGA (sugars k3 d10 k3, PS) as the sequence, how does the target mRNA inhibition (SK-MEL-28, 4 µM) read?
A: 28%

Q: With TAGCAGGGCACGCTCT (sugars k3 d10 k3, PS) as the sequence, how does the target mRNA inhibition (SK-MEL-28, 4 µM) read?
A: 31%

Q: For TAGGAAGTTTACTAAC (sugars k3 d10 k3, PS), which target mRNA inhibition (SK-MEL-28, 4 µM) is on record?
A: 36%

Q: With TAGGTGCTTGTTGAAT (sugars k3 d10 k3, PS) as the sequence, how does the target mRNA inhibition (SK-MEL-28, 4 µM) read?
A: 50%

Q: How did the target mRNA inhibition (SK-MEL-28, 4 µM) turn out when TAGTAAATATCCTGTA (sugars k3 d10 k3, PS) was run?
A: 42%

Q: For TAGTAAGTTCTAGTCG (sugars k3 d10 k3, PS), which target mRNA inhibition (MM.1R, 1 µM) is on record?
A: -13%

Q: What does the source list for TAGTTTTATGTTAGCC (sugars k3 d10 k3, PS)?
A: target mRNA inhibition (MM.1R, 0.0625 µM): 4%; target mRNA inhibition (MM.1R, 0.074 µM): -1%; target mRNA inhibition (MM.1R, 0.222 µM): 4%; target mRNA inhibition (MM.1R, 0.25 µM): 18%; target mRNA inhibition (MM.1R, 0.666 µM): 22%; target mRNA inhibition (MM.1R, 1 µM): 45%; target mRNA inhibition (MM.1R, 2 µM): 39%; target mRNA inhibition (MM.1R, 4 µM): 78%; target mRNA inhibition (SK-MEL-28, 4 µM): 75%

Q: How did the target mRNA inhibition (MM.1R, 1 µM) turn out when TATACATTGAGGCATA (sugars k3 d10 k3, PS) was run?
A: 7%

Q: TATATATGACGACTTA (sugars k3 d10 k3, PS) was tested. Which target mRNA inhibition (SK-MEL-28, 4 µM) did it give?
A: 20%

Q: How did the target mRNA inhibition (SK-MEL-28, 4 µM) turn out when TATCATATGCCCAATA (sugars k3 d10 k3, PS) was run?
A: 32%

Q: What does the source list for TATCATGCATACCAAA (sugars k3 d10 k3, PS)?
A: target mRNA inhibition (MM.1R, 0.074 µM): -4%; target mRNA inhibition (MM.1R, 0.222 µM): -7%; target mRNA inhibition (MM.1R, 0.666 µM): 3%; target mRNA inhibition (MM.1R, 2 µM): 14%; target mRNA inhibition (SK-MEL-28, 4 µM): 58%

Q: With TATCCATGTTGCATGG (sugars k3 d10 k3, PS) as the sequence, how does the target mRNA inhibition (SK-MEL-28, 4 µM) read?
A: 61%

Q: Which target mRNA inhibition (SK-MEL-28, 4 µM) does the source give for TATGCCATGGACAAGT (sugars k3 d10 k3, PS) here?
A: 19%

Q: For TCAAACTATAATTGGC (sugars k3 d10 k3, PS), which target mRNA inhibition (SK-MEL-28, 4 µM) is on record?
A: 74%

Q: How did the target mRNA inhibition (MM.1R, 0.074 µM) turn out when TCAAAGTCATTGCTCT (sugars k4 d8 k4, PS) was run?
A: -3%

Q: And the target mRNA inhibition (MM.1R, 0.222 µM)?
A: 6%

Q: What about the target mRNA inhibition (MM.1R, 0.666 µM) of the same sequence?
A: 6%

Q: What about the target mRNA inhibition (MM.1R, 2 µM) of the same sequence?
A: 13%

Q: And the target mRNA inhibition (SK-MEL-28, 0.185 µM)?
A: 4% and -4% and 0%

Q: What about the target mRNA inhibition (SK-MEL-28, 4 µM) of the same sequence?
A: 57%

Q: With TCAAATCGACTGCCAC (sugars k3 d10 k3, PS) as the sequence, how does the target mRNA inhibition (SK-MEL-28, 4 µM) read?
A: 54%

Q: TCAACAGCAGGTTTTG (sugars k3 d10 k3, PS) was tested. Which target mRNA inhibition (SK-MEL-28, 4 µM) did it give?
A: 41%

Q: TCAACCAGTTCCTCAA (sugars k3 d10 k3, PS) was tested. Which target mRNA inhibition (MM.1R, 1 µM) did it give?
A: -23%

Q: TCAACCTGGAAGGATG (sugars k3 d10 k3, PS) was tested. Which target mRNA inhibition (SK-MEL-28, 4 µM) did it give?
A: 30%

Q: With TCAACTTGTGACCCAC (sugars k3 d10 k3, PS) as the sequence, how does the target mRNA inhibition (MM.1R, 1 µM) read?
A: 14%

Q: For TCAATAATCTCCCAGC (sugars k3 d10 k3, PS), which target mRNA inhibition (SK-MEL-28, 4 µM) is on record?
A: 55%

Q: Which target mRNA inhibition (SK-MEL-28, 4 µM) does the source give for TCACAAAGCGGGTTCA (sugars k3 d10 k3, PS) here?
A: 23%

Q: How did the target mRNA inhibition (SK-MEL-28, 4 µM) turn out when TCACAAGCTGGGCCTT (sugars k3 d10 k3, PS) was run?
A: 30%

Q: How did the target mRNA inhibition (SK-MEL-28, 4 µM) turn out when TCACCTGGCAACCTGC (sugars k4 d8 k4, PS) was run?
A: 28%

Q: Which target mRNA inhibition (SK-MEL-28, 4 µM) does the source give for TCACGAGGTTGCCGAG (sugars k3 d10 k3, PS) here?
A: 62%

Q: Which target mRNA inhibition (SK-MEL-28, 4 µM) does the source give for TCAGACTGTGCTGCTC (sugars k3 d10 k3, PS) here?
A: 36%

Q: With TCAGAGCTAGAACATG (sugars k3 d10 k3, PS) as the sequence, how does the target mRNA inhibition (SK-MEL-28, 4 µM) read?
A: 38%

Q: For TCAGCTCCACTGTTAA (sugars k3 d10 k3, PS), which target mRNA inhibition (SK-MEL-28, 4 µM) is on record?
A: 73%

Q: With TCAGGGAATCCCTTAT (sugars k3 d10 k3, PS) as the sequence, how does the target mRNA inhibition (MM.1R, 1 µM) read?
A: 4%

Q: For “TCAGTTTGTGAAGCAT (sugars e1 k2 d9 k2 e2, PS)”, which target mRNA inhibition (MM.1R, 1 µM) is on record?
A: 47%

Q: How did the target mRNA inhibition (MM.1R, 1 µM) turn out when “TCAGTTTGTGAAGCAT (sugars k2 d9 e3 k2, PS)” was run?
A: 39%

Q: Which target mRNA inhibition (MM.1R, 1 µM) does the source give for “TCAGTTTGTGAAGCAT (sugars kkdddddddddkdkdk, PS)” here?
A: 25%

Q: How did the target mRNA inhibition (SK-MEL-28, 4 µM) turn out when TCATACCCAATAGTCT (sugars k3 d10 k3, PS) was run?
A: 52%

Q: TCATACCCTGGATCAC (sugars k3 d10 k3, PS) was tested. Which target mRNA inhibition (SK-MEL-28, 4 µM) did it give?
A: 43%

Q: Which target mRNA inhibition (SK-MEL-28, 4 µM) does the source give for TCATGATATTAGAGAC (sugars k3 d10 k3, PS) here?
A: 35%

Q: What does the source list for TCATTTACTGTTACCG (sugars k3 d10 k3, PS)?
A: target mRNA inhibition (MM.1R, 0.0625 µM): 6%; target mRNA inhibition (MM.1R, 0.25 µM): 18%; target mRNA inhibition (MM.1R, 1 µM): 56% and 40%; target mRNA inhibition (MM.1R, 4 µM): 82%
